Test [1] addresses T1, HBV polymerase reverse transcriptase (HBV-RT) (Hepatitis B virus genotype D subtype ayw, UniProt P03156).
T1 construct: made in house; host or cells: E. coli
The experiment in a line: inhibitory activity against HBV polymerase in vitro (reverse transcriptase activity). To be noted: read-out: Inhibitory effect of HBV-RT; for inhibition at 0.1 µg/mL: 0.1 μg/ml; for inhibition at 1 µg/mL: 1 μg/ml. It is filed as biochemical. From the text: Experiment 1: The inhibitory activity against HBV polymerase in vitro.
Recently, the inventors of the present invention have produced a recombinant HBV polymerase that is expressed from E.coli transformant, measured its enzyme activity and filed patent applications thereof [Korean Patent Application Nos. 94-3918, 96-33998 and 96-63255].
The inventions have established a method of measuring the reverse transcriptase activity of HBV polymerase in vitro. The fundamental principle is the same as the ELISA method, and after reacting the substrate with biotin- and DIG-modified nucleotide, a method of recognizing the polymerized substrate as anti-DIG antibody with peroxidase was used. […] and 20 μ of test compound were mixed and reacted at 14~30° C. for 18~24 hours. Then, the inhibitory effect of test compound against reverse trascriptase activity in the HBV polymerase was examined, compared with the results of control tests without the test compound.

For test [2], the target named is T2, RNase H of HBV polymerase (HBV-RNase H) (Hepatitis B virus ayw/France/Tiollais/1979, UniProt P03156).
T2 construct: amylose/maltose step implies MBP fusion
T2 sequence (P03156 680-832): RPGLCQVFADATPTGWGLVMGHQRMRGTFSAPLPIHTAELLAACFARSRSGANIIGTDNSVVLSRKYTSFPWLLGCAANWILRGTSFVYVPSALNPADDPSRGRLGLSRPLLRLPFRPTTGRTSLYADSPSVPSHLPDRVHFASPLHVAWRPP
The experiment in a line: inhibitory effects against RNase H activity of HBV polymerase. To be noted: read-out: Inhibitory effect of HBV-RNase H; for inhibition at 0.1 µg/mL: 0.1 μg/ml; for inhibition at 1 µg/mL: 1 μg/ml. It is filed as biochemical. As for the experimental part: Experiment 2: The inhibitory effects against RNase H activity of HBV polymerase.
1) Expression of the RNase H domain derived from human HBV polymerase
E.coli NM 522 was transformed by the expression vector pMRH respectively and the transformants were cultured in LB medium at 37° C., overnight. These growing cultures were diluted 1:100, inoculated into a glucose rich medium and incubated until OD600 reached 0.5. Then IPTG (isopropylthiogalactoside) was added into the medium of which the fine concentration was 0.5 mM. The above growing cultures were incubated again at 20° C. for 16 hours and the RNase H domain was expressed.
The above cultured broth was centrifuged for 10 minutes at 3,000 rpm and the cell pellet was washed with 10 ml of TNE column buffer (10 mN Tris-Cl, pH 8.0, 200 mM NaCl, 1 mM EDTA), and resuspended in 10 ml of TNE column buffer. The cells were freezed and thawed 4 times repeatedly, and then disrupted by sonication for 10 seconds 3 times. The crude extract prepared in the above process was centrifuged for 30 minutes at 13,000 rpm, 4° C. and the supernatant was separated. The above process was repeated 2 times and then the supernatant passed the amylose resin. The resin was washed by using column buffer with 50 times of resin volume, and the RNase H domain was eluted by using buffer containing 10 mM maltose.
In addition, the RNase H domain produced from the expression vector pMRH was purified by using histidine tag affinity column, because RNase H has a histidine tag at the C-terminus. The resin (Ni-NTA, QIAGEN) used in the histidine tag affinity column was activated by using sonication buffer (50 mM sodium phosphate, pH 8.0, 300 mM sodium chloride) and 4~5 ml of the activated resin was charged in the glass tube whose diameter was about 1 cm. The protein sample obtained from above description passed the resin at the 0.1 ml/ min flow rate and the column was washed by using washing buffer with the 100~200 times volume of protein sample (50 mM sodium phosphate, pH 6.0, 300 mM sodium chloride, 10% glycerol). The recombinant protein was eluted by washing the column with concentration gradient of 0.01~0.5 M imidazole.
As a result, the active RNase H domain was separated from the histidine tag affinity column at 30 mM concentration of imidazole. The purified RNase H domain was mixed with 50% glycerol for storage at -20° C. after the removal of imidazole from it and employed fol the screening of HBV inhibitors.
2) Preparation of the substrate of the RNase H enzyme
In order to identify the RNase H activity, RNA/DNA complex which can be used as a substrate of the RNase H enzyme was prepared by performing in vitro transcription with […].
3) Screening of active inhibitors against RNase H
The RNase H activity was measured by using recombinant RNase H enzyme and radiolabled RNA/DNA hybrid. In order to measure the RNase H activity, 1 μg of RNase H enzyme and test compound were mixed with buffer solution containing 40 mM Tris-Cl (pH 8.0), 4 mM magnesium chloride, 40 mM potassium chloride and 2 mM DTT. The mixture was pretreated on ice for 10 minutes. After pretreatment is completed, RNA/DNA hybrid was added to incubate at 37° C. for 3 hours. After the reaction was stopped, 7.5 M ammonium acetate in a volume of 1/2 and ethanol in a 3-fold volume were added. The above reaction mixture was incubated at -20° C. for more than 2 hours and centrifuged for 15 minutes at 4° C., 13,000 rpm. The supernatant was obtained and the radioactive signal of supernatant was measured by scintillation counter.
As a control, water was added instead of test compound and the inhibitory activity was calculated to compare with the control, when the radioactivity intensity on each test compound, was obtained.

Test [3] concerns the target T3, HIV reverse transcriptase (HIV-RT) (Human immunodeficiency virus type 1 group M subtype B, UniProt P04585).
T3 construct: purchased Boehringer Mannheim
The experiment in a line: in vitro inhibition test against HIV reverse transcriptase. It counts as biochemical, HIV (AIDS virus). To be noted: read-out: Inhibitory effect of HIV-RT; for inhibition at 0.1 µg/mL: 0.1 μg/ml; for inhibition at 1 µg/mL: 1 μg/ml. As for the experimental part: Experiment 3: The in vitro inhibition test against HIV reverse transcriptase
The inhibitory activity in vitro was measured using a non-radioactive reverse transcriptase assay Kit (Boehringer Mannheim).
At first, 20 μl(40 ng) HIV-RT was added to the wells coated with streptavidin and with the addition of 20 μl, reaction mixture containing template/primer hybrid poly(A)/oligo(dT)15 and DIG-(digoxigenin)-dUTP, biotin-dUTP and TTP, 20 μl test compound was added and reacted at 37° C. for 1 hour. The control without test compound was used for the comparison of related activity. Since DNA containing nucleotide labeled with digoxigenin and biotine was prepared by the action of HIV-RT, it was combined with streptavidin coated at the bottom of the wells. After the reaction was completed, remaining impurities were removed by washing each well with 20 μl buffer solution (pH 7.0) for 30 seconds 5 times and with the addition of 200 μl anti-DIG-POD antibody, the mixture was reacted at 37° C. for 1 hour. For the removal of remaining impurities again, the reacting solution was washed with a buffer solution and with the addition of 200μl ABTS™ each, a substrate of POD(peroxidase), the solution was reacted at room temperature for 30 minutes. The absorbance was read by ELISA reader at 405 nm for the assay of reverse transcriptase activity and its inhibition activity.

T1 sequence (P03156 whole entry): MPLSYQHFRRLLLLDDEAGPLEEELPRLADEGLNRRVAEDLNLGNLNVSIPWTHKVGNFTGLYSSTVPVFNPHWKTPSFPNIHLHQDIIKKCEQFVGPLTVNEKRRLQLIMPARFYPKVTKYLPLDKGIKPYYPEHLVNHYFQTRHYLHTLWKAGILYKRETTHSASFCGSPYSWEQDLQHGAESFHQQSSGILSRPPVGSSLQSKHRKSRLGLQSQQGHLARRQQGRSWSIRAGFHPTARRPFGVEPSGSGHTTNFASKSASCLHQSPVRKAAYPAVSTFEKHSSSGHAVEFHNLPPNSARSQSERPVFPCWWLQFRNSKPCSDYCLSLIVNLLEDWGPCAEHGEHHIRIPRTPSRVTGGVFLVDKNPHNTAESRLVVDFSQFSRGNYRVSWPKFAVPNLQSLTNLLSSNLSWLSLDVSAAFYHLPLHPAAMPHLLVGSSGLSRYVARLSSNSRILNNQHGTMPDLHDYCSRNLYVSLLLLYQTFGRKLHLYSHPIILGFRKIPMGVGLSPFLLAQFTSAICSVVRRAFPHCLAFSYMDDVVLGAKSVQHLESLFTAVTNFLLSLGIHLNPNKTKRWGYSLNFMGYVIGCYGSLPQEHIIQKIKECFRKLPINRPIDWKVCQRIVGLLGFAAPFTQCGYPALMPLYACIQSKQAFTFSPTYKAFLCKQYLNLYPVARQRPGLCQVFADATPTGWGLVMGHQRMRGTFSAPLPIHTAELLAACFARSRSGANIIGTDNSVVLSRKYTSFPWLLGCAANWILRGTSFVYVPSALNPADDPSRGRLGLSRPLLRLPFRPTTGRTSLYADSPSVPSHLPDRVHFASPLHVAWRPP

As for `CCN(CCO)C(=O)c1ccc(C(=O)N2CCN(c3ncccc3NC(C)C)CC2)cc1` [Compound No. 6, 1-[N-Ethyl-N-(2-hydroxyethyl)carbamoyl]-4-[1-[3-(isopropylamino)-2-pyridyl]piperazin-4-yl-carbonyl]benzene], in test [1], the inhibition at 0.1 µg/mL turned out to be 30% and the inhibition at 1 µg/mL came to 51%. Moreover, in test [2], the inhibition at 0.1 µg/mL was 55% and the inhibition at 1 µg/mL came to 83%.

Consider `CC(C)Nc1cccnc1N1CCN(C(=O)c2ccc(C(=O)N3CCNCC3)cc2)CC1` [Compound No. 19, 1-[4-[1-[3-(Isopropylamino)-2-pyridyl]piperazin-4-yl-carbonyl]benzoyl]piperazine], for which the inhibition at 0.1 µg/mL in test [2] is 38%; in test [3] it was 43%. Further, the inhibition at 1 µg/mL in test [2] worked out at 53%; in test [3], 52%.

Regarding `CC(C)Nc1cccnc1N1CCN(C(=O)c2ccc(C(=O)N3CCN(CCCO)CC3)cc2)CC1` [Compound No. 27, 4-(3-Hydroxypropyl)-1-[4-[1-[3-(isopropylam-ino)-2-pyridyl]piperazin-4-yl-carbonyl]benzoyl]piperazine], the inhibition at 0.1 µg/mL in test [2] was determined as 73%; in test [3], 40%. For the same molecule, the inhibition at 1 µg/mL is 81% in test [2] and 68% in test [3].

Turning to `CC(C)Nc1cccnc1N1CCN(C(=O)c2ccc(C(=O)N3CCN(CC(O)CO)CC3)cc2)CC1` (stereo not drawn) [Compound No. 31, 4-(2,3-Dihydroxypropyl)-1-[4-[1-[3-(isopropylamino)-2-pyridyl]piperazin-4-yl-carbonyl]benzoyl]piperazine], in test [1], the inhibition at 0.1 µg/mL is 30% and the inhibition at 1 µg/mL is 52%. In test [2], the inhibition at 0.1 µg/mL was 80% and the inhibition at 1 µg/mL came to 85%.

As for `CC(C)Nc1cccnc1N1CCN(C(=O)c2ccc(C(=O)N[C@@H](CO)C(C)C)cc2)CC1` [Compound No. 39, 1-[N-[(1R)-2-Hydroxy-1-(1-methylethyl)ethyl]carbamoyl]-4-[1-[3-(isopropylamino)-2-pyridyl]piperazin-4-yl-carbonyl]benzene], in test [1], the inhibition at 0.1 µg/mL was determined as 30% and the inhibition at 1 µg/mL was 78%. For the same molecule, in test [3], the inhibition at 0.1 µg/mL is 25% and the inhibition at 1 µg/mL was 75%.

For `CC(C)Nc1cccnc1N1CCN(C(=O)c2ccc(C(=O)N[C@H](CO)c3ccccc3)cc2)CC1` [Compound No. 48, 1-[N-[(1S)-2-Hydroxy-1-phenylethyl]carbamoyl]-4-[1-[3-(isopropylamino)-2-pyridyl]piperazin-4-yl-carbonyl]benzene], in test [1], the inhibition at 0.1 µg/mL amounted to 61% and the inhibition at 1 µg/mL turned out to be 80%. In test [3], the inhibition at 0.1 µg/mL came out at 46% and the inhibition at 1 µg/mL was 51%.

As to `COCCNC(=O)c1ccc(C(=O)N2CCN(c3ncccc3NC(C)C)CC2)cc1` [Compound No. 61, 4-[1-[3-(Isopropylamino)-2-pyridyl]piperazin-4-yl-carbonyl]-1-[N-(2-methoxyethyl)carbamoyl]benzene], the inhibition at 0.1 µg/mL came out at 33% in test [1] and 32% in test [3]. Also, the results for the inhibition at 1 µg/mL in test [1] and in test [3] were 81% and 65%, respectively.

With `COCCN(CCOC)C(=O)c1ccc(C(=O)N2CCN(c3ncccc3NC(C)C)CC2)cc1` [Compound No. 62, 1-[N,N-Bis(2-methoxyethyl)carbamoyl]-4-[1-[3-(isopropylamino)-2-pyridyl]piperazin-4-yl-carbonyl]benzene], in test [1], the inhibition at 0.1 µg/mL came to 53% and the inhibition at 1 µg/mL turned out to be 60%. Moreover, in test [3], the inhibition at 0.1 µg/mL stood at 41% and the inhibition at 1 µg/mL was determined as 58%.

As for `CC(C)Nc1cccnc1N1CCN(C(=O)c2ccc(C(=O)N3CCOCC3)cc2)CC1` [Compound No. 76, 4-[1-[3-(Isopropylamino)-2-pyridyl]piperazin-4-yl-carbonyl]-1-(morpholin-4-yl-carbonyl)benzene], in test [1], the inhibition at 0.1 µg/mL turned out to be 49% and the inhibition at 1 µg/mL worked out at 79%. Moreover, in test [3], the inhibition at 0.1 µg/mL came to 43% and the inhibition at 1 µg/mL worked out at 52%.

Regarding `CC(C)Nc1cccnc1N1CCN(C(=O)c2ccc(C(=O)NCCN3CCOCC3)cc2)CC1` [Compound No. 79, 4-[1-[3-(Isopropylamino)-2-pyridyl]piperazin-4-yl-carbonyl]-1-[N-[2-(morpholin-4-yl)ethyl]carbamoyl]benzene], in test [1], the inhibition at 0.1 µg/mL is 65% and the inhibition at 1 µg/mL stood at 72%. Moreover, in test [3], the inhibition at 0.1 µg/mL amounted to 59% and the inhibition at 1 µg/mL was 71%.

In the case of `CC(C)Nc1cccnc1N1CCN(C(=O)c2ccc(C(=O)NCCCN3CCOCC3)cc2)CC1` [Compound No. 80, 4-[1-[3-(Isopropylamino)-2-pyridyl]piperazin-4-yl-carbonyl]-1-[N-[3-(morpholin-4-yl)propyl]carbamoyl]benzene], in test [1], the inhibition at 0.1 µg/mL is 40% and the inhibition at 1 µg/mL amounted to 66%. In test [3], the inhibition at 0.1 µg/mL came out at 43% and the inhibition at 1 µg/mL amounted to 56%.

With `CC(C)Nc1cccnc1N1CCN(C(=O)c2ccc(C(=O)NCCN(C)C)cc2)CC1` [Compound No. 83, 1-[N-[2-(Dimethylamino)ethyl]carbamoyl]-4-[1-[3-(isopropylamino)-2-pyridyl]piperazin-4-yl-carbonyl]benzene], in test [1], the inhibition at 0.1 µg/mL turned out to be 62% and the inhibition at 1 µg/mL came to 65%. In test [3], the inhibition at 0.1 µg/mL stood at 62% and the inhibition at 1 µg/mL came out at 65%.

These data come from patent publication US5922871A, “Terephthalamide derivatives” (Dongwha Pharmaceutical Ind. Co., Ltd., priority 1997, dated 1999).
